# Where two headings read alike, the source gives them in different places.
# Columns and labels:
# [1] = tested on: BCL6 reporter construct (3xBCL6-TK-Luc) in SuDHL4 cells; assay: Cell-based luciferase assay
# Description: Cell-Based Luciferase Assay
# A BCL6 reporter construct containing three copies of the consensus BCL6 binding site, the TK promoter, and the firefly luciferase gene was stably expressed in SuDHL4 cells after lentivirus infection and selection with Blasticidin. SuDHL4-3×BCL6-TK-Luc cells were seeded into a Viewplate 384-well assay dish at 15,000 cells/well in 25 ul medium (Alpha-MEM high glucose containing 10% FBS, 25 mM HEPES, […] GlutaMAX, 100 ug/ml Normocin, and […] Gentamycin, Invitrogen). A HP D300 digital dispenser was used to dose cells with DMSO or test compounds across a 10-point range of concentrations (high dose of 10 uM), and cultures were grown in a humidified 5% CO2 incubator at 37° C. After two days, plates were removed from the incubator and equilibrated to room temperature. An equal volume of neolite reporter gene assay reagent was added to each well, and samples were processed according to manufacturer's instructions (Perkin Elmer). Luminescent signal was measured using an Envision plate reader equipped with a US-Luminescence detector.
# Karpas422 cells = assay: Tumor cell growth inhibition assay; type: cell-based
# Description: Tumor Cell Growth inhibition Assay
# Karpas422 cells were seeded into a 96-well plate at 2,000 cells/well in 150 ul medium (Alpha-MEM containing 10% FBS, […] Normocin, and […] Gentamycin, Invitrogen). A HP D300 digital dispenser was used to dose cells with DMSO or test compounds across a 10-point range of concentrations (high dose of 5 uM), and cultures were grown in a humidified 5% CO2 incubator at 37° C. After six days, plates were removed from incubator and equilibrated to room temperature. An equal volume of ATPlite assay reagent was added to each well, and samples were processed according to manufacturer's instructions (Perkin Elmer). Luminescent signal was measured using an Envision plate reader equipped with a US-Luminescence detector.
# BCL6 BTB domain = BCL6 BTB domain (Homo sapiens (Human), UniProt P41182); assay: Surface plasmon resonance (SPR) assay; type: binding; details: BCL6 BTB domain captured on SA chip, single cycle kinetics
# [2] = Homo sapiens, SU-DHL-4, 48 h, read-out: Luciferase-Assay EC50, uM), SuDHL4-3xBCL6-TK-Luc cells, two days, high dose 10 uM
# [3] = Homo sapiens, KARPAS-422, 144 h, read-out: Tumor Growth Inhibition in Karpas-422 (IC50, uM), Karpas422 cells, six days, ATPlite
# [4] = read-out: Tumor Growth Inhibition in Karpas-422 (IC50), Karpas422 cells, six days, ATPlite
Compound,"EC50 [1, 2] [µM]",IC50 (Karpas422 cells; [3]) [µM],Kd (BCL6 BTB domain) [nM],further results
CCOc1cc(-c2cn(CC(=O)Nc3cc(N4CCOC[C@@H]4C)ncc3Cl)c3ncn(C)c(=O)c23)cc(C(N)=O)c1O [Compound I-144],10,10,–,–
Cn1cnc2c(c(-c3cc(C(N)=O)c(O)c(F)c3F)cn2CC(=O)Nc2cc(N3CC4CCOC4C3)ncc2Cl)c1=O (centres unmarked) [Compound I-224],2.02,0.651,22.4,–
C[C@H]1COCCN1c1cc(NC(=O)Cn2cc(-c3cc(C(N)=O)c(O)c(F)c3F)c3c(=O)n(C)cnc32)c(F)cn1 [Compound I-397],3.31,2.54,98.3,–
Cn1cnc2c(c(-c3cc(Cl)c(O)c(C(N)=O)c3)cn2CC(=O)Nc2cc(N3CCOC4(CCC4)C3)ncc2Cl)c1=O [Compound I-350],0.486,0.897,63.9,–
Cn1cnc2c(c(-c3cc(Cl)c(O)c(C(N)=O)c3)cn2CC(=O)Nc2cc(N3CCOC(C(F)(F)F)C3)ncc2Cl)c1=O (centres unmarked) [Compound I-69],–,–,72,"EC50 ([1]; read-out: Luciferase-Assay EC50, SuDHL4-3xBCL6-TK-Luc cells, two days, high dose 10 uM): 0.269 µM; IC50 (Karpas422 cells; [4]): 0.22 µM"
COC[C@H]1COCCN1c1cc(NC(=O)Cn2cc(-c3cc(Cl)c(O)c(C(N)=O)c3)c3c(=O)n(C)cnc32)c(Cl)cn1 [Compound I-151],0.168,0.144,10.6,–
C[C@H]1CNCCN1c1cc(NC(=O)Cn2cc(-c3cc(C(N)=O)c(O)c4c3OCO4)c3c(=O)n(C)cnc32)c(Cl)c(F)n1 [Compound I-349],0.131,0.0873,3.29,–
COc1cc(-c2cn(CC(=O)Nc3cc(N4CCOC[C@@H]4C)ncc3Cl)c3nc(C)n(C)c(=O)c23)cc(C(N)=O)c1O [Compound I-122],0.119,0.078,6,–
Cc1nc2c(c(-c3cc(C(N)=O)c(O)c4c3OCO4)cn2CC(=O)Nc2cc(N3CCNC[C@@H]3C)nc(F)c2Cl)c(=O)n1C [Compound I-230],0.0625,0.0157,2.32,–
CN1CCN(c2cc(NC(=O)Cn3cc(-c4cc(Cl)c(O)c(C(N)=O)c4)c4c(=O)n(C)cnc43)c(Cl)cn2)C(C)(C)C1 [Compound I-352],0.79,0.346,59.7,–
CN1CC2CC(C1)N2c1cc(NC(=O)Cn2cc(-c3cc(C(N)=O)c(O)c(F)c3F)c3c(=O)n(C)cnc32)c(Cl)cn1 [Compound I-451],–,–,157,–
"(S)-3-chloro-5-(7-(2-((5-chloro-2-(3-methylmorpholino)pyridin-4-yl)amino)-2-oxoethyl)-3-methyl-4-oxo-2-phenyl-4,7-dihydro-3H-pyrrolo[2,3-d]pyrimidin-5-yl)-2-hydroxybenzamide [Compound I-247]",–,–,–,"EC50 ([1]; SuDHL4-3xBCL6-TK-Luc cells, two days, high dose 10 uM, read-out: Luciferase-Assay EC50): 15.2 µM; IC50 (Karpas422 cells; Karpas422 cells, six days, ATPlite, read-out: Tumor Growth Inhibition in Karpas-422 (IC50)): 0.628 µM"
Cc1nc2c(c(-c3cc(Cl)c(O)c(C(N)=O)c3)cn2CC(=O)Nc2cc(N3CCN(CC4CC4)C[C@@H]3C)ncc2Cl)c(=O)n1C [Compound I-338],0.163,0.231,–,–
C[C@H]1CN(CC2CC2)CCN1c1cc(NC(=O)Cn2cc(-c3cc(C(N)=O)c(O)c(F)c3F)c3c(=O)n(C)cnc32)c(Cl)cn1 [Compound I-307],0.464,0.676,–,–
CN1CC2CC(C1)N2c1cc(NC(=O)Cn2cc(-c3cc(F)c(O)c(C(N)=O)c3)c3c(=O)n(C)cnc32)c(Cl)cn1 [Compound I-450],–,–,43.6,–
C[C@H]1CN(CC(F)(F)F)CCN1c1cc(NC(=O)Cn2cc(-c3cc(Cl)c(O)c(C(N)=O)c3)c3c(=O)n(C)c(C(F)(F)F)nc32)c(Cl)cn1 [Compound I-253],–,–,2100,–
C[C@H]1COCCN1c1cc(NC(=O)Cn2cc(-c3cc(Cl)c(O)c(C(N)=O)c3)c3c(=O)n(C)cnc32)c(Cl)cn1 [Compound I-35],–,–,–,IC50 (Karpas422 cells; [4]): 0.133 µM

Compound,"EC50 [1, 2] [µM]",IC50 (Karpas422 cells; [3]) [µM],Kd (BCL6 BTB domain) [nM],further results
C[C@H]1CN(C)CCN1c1cc(NC(=O)Cn2cc(-c3cc(F)c(O)c(C(N)=O)c3)c3c(=O)n(C)c(C(F)(F)F)nc32)c(Cl)cn1 [Compound I-233],0.161,–,23.7,–
COc1c(O)c(C(N)=O)cc(-c2cn(CC(=O)Nc3cc(N4CCN(C)C[C@@H]4C)ncc3Cl)c3nc(C(F)(F)F)n(C)c(=O)c23)c1F [Compound I-266],1.61,2.78,–,–
"Cn1cnc2c(c(-c3cc(Cl)c(O)c(C(N)=O)c3)cn2CC(=O)N[C@@H]2CCCC[C@H]2OC(=O)C(F)(F)F)c1=O [Compound I-254, (1R,2R)-2-(2-(5-(3-carbamoyl-5-chloro-4-hydroxyphenyl)-3-methyl-4-oxo-3,4-dihydro-7H-pyrrolo[2,3-d]pyrimidin-7-yl)acetamido)cyclohexyl 2,2,2-trifluoroacetate]",–,–,3880,–
Cn1cnc2c(c(-c3cc(Cl)c(O)c(C(N)=O)c3)cn2CC(=O)NC2CCCc3ccncc32)c1=O (centres unmarked) [Compound I-255],–,–,6110,–
"CNc1nc2c(c(-c3cc(Cl)c(O)c(C(N)=O)c3)cn2CC(=O)Nc2cc(N3CCOC[C@@H]3C)ncc2Cl)c(=O)n1C [Compound I-268, (S)-3-chloro-5-(7-(2-((5-chloro-2-(3-methylmorpholino)pyridin-4-yl)amino)-2-oxoethyl)-3-methyl-2-(methylamino)-4-oxo-4,7-dihydro-3H-pyrrolo[2,3-d]pyrimidin-5-yl)-2-hydroxybenzamide]",1.8,1.86,–,–
[2H]C1(C([2H])([2H])N2CCN(c3cc(NC(=O)Cn4cc(-c5cc(C(N)=O)c(O)c(F)c5F)c5c(=O)n(C)cnc54)c(Cl)cn3)[C@@H](C)C2)CC1 [Compound I-370],0.61,1.31,–,–
Cc1nc2c(c(-c3cc(Cl)c(O)c(C(N)=O)c3)cn2CC(=O)Nc2ccncc2Br)c(=O)n1C [Compound I-337],1.55,1.93,–,–
Cc1nc2c(c(-c3cc(Cl)c(O)c(C(N)=O)c3)cn2CC(=O)Nc2cc(N3CCN(C4COC4)C[C@@H]3C)ncc2Cl)c(=O)n1C [Compound I-336],0.0383,0.0502,–,–
CN1CCN(c2ccc(Cl)c(NC(=O)Cn3cc(-c4cc(Cl)c(O)c(C(N)=O)c4)c4c(=O)n(C)cnc43)n2)CC1 [Compound I-175],–,4.79,429,–
Cc1nc2c(c(-c3cc(C(N)=O)c(O)c(F)c3F)cn2CC(=O)Nc2cc(N3CCN(CC4CC4)C[C@@H]3C)ncc2Cl)c(=O)n1C [Compound I-339],0.454,0.237,–,–
"CN(C)c1cc(NC(=O)Cn2cc(-c3cc(Cl)c(O)c(C(N)=O)c3)c3c(=O)n(C)c(Nc4cc(N(C)C)ncc4Cl)nc32)c(Cl)cn1 [Compound I-291, 3-chloro-5-(2-((5-chloro-2-(dimethylamino)pyridin-4-yl)amino)-7-(2-((5-chloro-2-(dimethylamino)pyridin-4-yl)amino)-2-oxoethyl)-3-methyl-4-oxo-4,7-dihydro-3H-pyrrolo[2,3-d]pyrimidin-5-yl)-2-hydroxybenzamide]",1.76,0.908,–,–
Cn1cnc2c(c(-c3cc(Cl)c(O)c(C(N)=O)c3)cn2CC(=O)NC2CCCc3ncccc32)c1=O (centres unmarked) [Compound I-257],–,–,3640,–
"C[C@H]1COCCN1c1cc(NC(=O)Cn2cc(-c3cc(Cl)c(O)c(C(N)=O)c3)c3c(=O)n(C)c(N(C)C)nc32)c(Cl)cn1 [Compound I-263, (S)-3-chloro-5-(7-(2-((5-chloro-2-(3-methylmorpholino)pyridin-4-yl)amino)-2-oxoethyl)-2-(dimethylamino)-3-methyl-4-oxo-4,7-dihydro-3H-pyrrolo[2,3-d]pyrimidin-5-yl)-2-hydroxybenzamide]",2.07,0.745,–,–
C[C@H]1COCCN1c1cc(NC(=O)Cn2cc(-c3cc(Cl)c(O)c(C(N)=O)c3)c3c(=O)n(C)cnc32)c(Cl)cn1 [Compound I-239],–,–,–,IC50 (Karpas422 cells; [4]): 0.316 µM
CN1CCC2(C1)CN(c1cc(NC(=O)Cn3cc(-c4cc(C(N)=O)c(O)c(F)c4F)c4c(=O)n(C)cnc43)c(Cl)cn1)C2 [Compound I-485],–,–,805,–
"Cn1cnc2c(c(-c3cc(C(N)=O)c(O)cn3)cn2CC(=O)Nc2cc(N3CCOCC3)ncc2Cl)c1=O [Compound I-143, 2-(7-(2-((5-chloro-2-morpholinopyridin-4-yl)amino)-2-oxoethyl)-3-methyl-4-oxo-4,7-dihydro-3H-pyrrolo[2,3-d]pyrimidin-5-yl)-5-hydroxyisonicotinamide]",6.2,–,250,–
Cn1cnc2c(c(-c3cc(Cl)c(O)c(C(N)=O)c3)cn2CC(=O)Nc2cc(N3CCn4cc(C(F)(F)F)nc4C3)ncc2Cl)c1=O [Compound I-165],0.466,–,14.9,–
